The values below come from patent publication US20210198277A1, “AMINE-SUBSTITUTED ARYL OR HETEROARYL COMPOUNDS” (Epizyme, Inc., priority 2016, published 2021).

Some results are limits rather than exact numbers.

For this assay, the target named is T1, human EHMT2 913-1193 (Homo sapiens, UniProt Q96KQ7).
T1 construct: recombinant purified human EHMT2 913-1193, Viva; purchased Viva
T1 sequence (Q96KQ7 913-1193): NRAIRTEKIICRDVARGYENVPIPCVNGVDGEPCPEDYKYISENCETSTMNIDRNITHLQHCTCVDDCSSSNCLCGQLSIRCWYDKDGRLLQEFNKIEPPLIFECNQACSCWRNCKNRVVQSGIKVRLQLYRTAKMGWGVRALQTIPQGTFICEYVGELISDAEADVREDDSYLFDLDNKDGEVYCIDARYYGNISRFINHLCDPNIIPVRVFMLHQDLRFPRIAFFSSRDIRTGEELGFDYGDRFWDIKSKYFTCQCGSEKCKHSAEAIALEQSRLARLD
The assay is described as follows: EHMT2 enzyme assay on histone peptide substrate (EHMT2 PEP). The conditions noted are these: Table VI; read-out: EHMT2 PEP IC50. It is filed as biochemical. In short, it runs like this: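 Compounds were tested as 3-fold dilutions, 10 points from a 50 μM final top (2% DMSO), after 30-min preincubation with 0.031 nM enzyme in Bicine buffer pH 7.5. Transfer of ^3H-methyl from ^3H-SAM to biotinylated histone peptide ran 60 min at room temperature and was detected by streptavidin Flashplate scintillation.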
Regarding `CNc1ccnc(Nc2ccc(OC)c(CNC[C@@H]3CCCN3)c2)n1` [Compound 1019], the IC50 was in the range of 1 to 10 µM.
For `CNc1nc(C)c2cc(OC)c(OCCCN3CCCC3)cc2n1` [Compound 737] the value was 1 to 10 µM; for `CC(C)N1CC(COc2cnc(NC3CCNCC3)nc2)C1` [Compound 636], greater than 10 µM; for `CCN1CC(NCc2cc(Nc3nc(C)cc(NC)n3)ccc2OC)C1` [Compound 647], greater than 10 µM.
For the molecule `COc1cc2c(C3CCN(C)CC3)cc(-c3cc[nH]n3)nc2cc1OCCCN1CCCC1` [Compound 678], the IC50 lay within 0.1 to 1 µM.
As for `COc1cc2c(C3CCN(C)CC3)c(F)c(C)nc2cc1OCCCN1CCCC1` [Compound 652], the figure is 0.1 to 1 µM.
